Results on one compound are retold here after patent US20080004266A1, “Method for treating proliferative disorders associated with protooncogene products” (priority 2006, published 2008).

The test system of one assay is phosphorylated Bcr-Abl. The assay is described as follows: Degradation of Bcr-Abl in KU812 cells (Western blot). The class given is cell-based. The conditions noted are these: 18 hours. On the procedure: KU812 chronic myeloid leukemia cells (ATCC) (2×10^6 cells), which harbor the Philadelphia chromosome that produces Bcr-Abl tyrosine kinase, were treated (0.1 μM and 1.0 μM) with either Compound 226, 17-AAG or 17-DMAG. After 18 hours, the cells were lysed with 1× lysis buffer, and a western blot was perform using anti-BCR-ABL antibody to detect phosphorylated Bcr-Abl.

Another assay has as its system K562 cells (Bcr-Abl). The assay is described as follows: Cell survival in K562 cells (Cell Counting Kit-8). Conditions: Homo sapiens, 72 hours. The class given is cell-based, human. The procedure:
Growth of this tumor cell line is dependent upon the expression of the Bcr-Abl fusion protein (C. Gambacarti-Passerini et al., Blood Cells Mol. Dis. 23:380-394, 1997). K562 cells (20,000 cells/well) were cultured in 96-well plates and maintained at 37° C. for several hours. […] 17AAG, DMAG, and Radicical are Hsp90 inhibitors that are currently in clinical trials and are used here as positive controls for Hsp90 inhibition. […] Cell survival was measured with Cell Counting Kit-8 (Dojindo Laboratories, Cat # CK04).

In assay [1] the test system is Kasumi-1 cells (c-Kit N822K). Briefly: Cell survival in Kasumi-1 cells (Cell Counting Kit-8). The format is cell-based, human. The conditions noted are these: Homo sapiens, 72 hours. The procedure: Kasumi-1 cells (20,000 cells/well) were cultured in 96-well plates and maintained at 37° C. for several hours. […] 17AAG and DMAG are Hsp90 inhibitors that are currently in clinical trials and are used here as positive controls for Hsp90 inhibition. […] Cell survival was measured with Cell Counting Kit-8 (Dojindo Laboratories, Cat # CK04).
A general note: Tetrazolium assays rely on reduction of a dye to a coloured formazan, in cell work by metabolically active cells.

The subject of another assay is MV 4-11 cells (FLT3-ITD). Briefly: Cell survival in MV-4-11 cells (Cell Counting Kit-8). The format is cell-based, human. Conditions: Homo sapiens, MV4-11, 72 hours. The procedure:
Human acute myelogenous leukemia (AML) cell line, MV 4-11 (ATCC #CRL-9591), was obtained from the American Type Culture Collection (ATCC; Manassas, Va., USA). Growth of this tumor cell line is dependent upon the expression of an activated form of the FLT3 tyrosine kinase receptor carrying an internal tandem duplication (ITD) mutation, which is the most common molecular defect associated with AML (K. W. Yee et al., Blood 100:2941-2949, 2002). MV 4-11 cells (20,000 cells/well) were cultured in 96-well plates and maintained at 37° C. for several hours. The cells were incubated at 37° C. for 72 hours with various concentrations of compounds of the invention, 17AAG, or DMAG. 17AAG and DMAG are Hsp90 inhibitors that are currently in clinical trials and are used here as positive controls for Hsp90 inhibition. Cell survival was measured with Cell Counting Kit-8 (Dojindo Laboratories, Cat # CK04).

The next assay concerns A375 cells (B-raf V600E). The assay is described as follows: Cell survival in A375 melanoma cells (Cell Counting Kit-8). The class given is cell-based, human. Conditions: Homo sapiens, A-375, 72 hours. The procedure:
Human melanoma cell line, A375 (2×10^6 cells), which contains the V600E mutation in the B-raf protein that confers constitutive […] kinase activity, was obtained from American Type Culture Collection. A375 cells (20,000 cells/well) were cultured in 96-well plates and maintained at 37° C. for several hours. The cells were incubated at 37° C. for 72 hours with various concentrations of compound 226, 17AAG or 17DMAG. 17AAG and 17DMAG are Hsp90 inhibitors that are currently in clinical trials and are used here as positive controls for Hsp90 inhibition. Cell survival was measured with Cell Counting Kit-8 (Dojindo Laboratories, Cat # CK04).

Assay [2] deals with NCI-H1975 cells (EGFR T790M and L858R). The assay is described as follows: Cell survival in NCI-H1975 cells (Cell Counting Kit-8). Conditions: Homo sapiens, 72 hours. The class given is cell-based, human. The procedure: Human lung cancer cell line NCI-H1975 which harbors both the T790M and the L858R mutations in EGFR was obtained from American Type Culture Collection. NCI-H1975 (10,000 cells/well) were cultured in 96-well plates and maintained at 37° C. for several hours. The cells were incubated at 37° C. for 72 hours with various concentrations of compound 226 of the invention, 17AAG or DMAG. 17AAG and DMAG are Hsp90 inhibitors that are currently in clinical trials and are used here as positive controls for Hsp90 inhibition. Cell survival was measured with Cell Counting Kit-8 (Dojindo Laboratories, Cat # CK04).

Assay [3] has as its system Karpas-299 cells (NPM-ALK). The assay is described as follows: Cell survival in Karpas-299 cells (Cell Counting Kit-8). The conditions noted are these: Homo sapiens, 72 hours. The format is cell-based, human. On the procedure: Growth of this tumor cell line is dependent upon the expression of the NPM-ALK fusion protein. Karpas-299 cells (20,000 cells/well) were cultured in 96-well plates and maintained at 37° C. for several hours. The cells were incubated at 37° C. for 72 hours with various concentrations of compound 226 of the invention, 17AAG, and 17DMAG. 17AAG and 17DMAG are Hsp90 inhibitors that are currently in clinical trials and are used here as positive controls for Hsp90 inhibition. Cell survival was measured with Cell Counting Kit-8 (Dojindo Laboratories, Cat # CK04).

The term pIC50 denotes the IC50 on a negative log10 scale, so that one unit is a factor of ten.

Molecules are shown by their SMILES. pIC50: −log10 of the molar value.

Consider `CC(C)c1cc(-c2nnc(O)n2-c2ccc3c(ccn3C)c2)c(O)cc1O` [Compound 226, 3-(2,4-di-hydroxy-5-isopropyl-phenyl)-4-(1-methyl-indol-5-yl)-5-hydroxy-[1,2,4] triazole], for which the “degradation of phosphorylated Bcr-Abl” value in the assay on phosphorylated Bcr-Abl (0.1 μM) and in the assay on phosphorylated Bcr-Abl (1.0 μM) was “complete degradation” throughout. For the same compound, the pIC50 in the assay with K562 cells (Bcr-Abl) is 7.85; in assay [1] it was 8.40; in the assay on MV 4-11 cells (FLT3-ITD), more than 8.40; with A375 cells (B-raf V600E), 8.40; in assay [2], 7.80; in assay [3], 8.00.
